Data on 13 compounds can be found in patent US20260191968A1, “PROTAC DEGRADERS OF MLLT1 AND/OR MLLT3” (DARK BLUE THERAPEUTICS LTD, priority 2024, published 2026).

This experiment has as its target T1, MLLT1 (Homo sapiens, UniProt Q03111).
T1 construct: host or cells: MV4-11
T1 sequence (Q03111 1-559): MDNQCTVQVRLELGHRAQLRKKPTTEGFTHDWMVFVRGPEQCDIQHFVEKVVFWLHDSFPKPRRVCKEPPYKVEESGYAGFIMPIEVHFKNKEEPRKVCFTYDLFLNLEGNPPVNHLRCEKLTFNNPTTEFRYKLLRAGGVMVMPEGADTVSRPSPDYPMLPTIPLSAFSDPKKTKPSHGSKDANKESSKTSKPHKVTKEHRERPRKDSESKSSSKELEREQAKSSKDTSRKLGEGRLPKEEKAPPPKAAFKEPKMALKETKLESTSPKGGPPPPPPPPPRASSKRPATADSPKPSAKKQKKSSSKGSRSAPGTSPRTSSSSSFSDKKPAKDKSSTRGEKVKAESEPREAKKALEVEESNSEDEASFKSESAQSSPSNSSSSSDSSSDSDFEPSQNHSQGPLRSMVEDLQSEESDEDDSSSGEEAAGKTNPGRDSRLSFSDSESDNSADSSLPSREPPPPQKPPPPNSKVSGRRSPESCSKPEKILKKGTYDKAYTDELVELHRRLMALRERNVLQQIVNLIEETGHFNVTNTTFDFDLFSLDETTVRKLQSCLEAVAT
In words: MLLT1 degradation assay in MV4-11 cells (JESS chemiluminescent detection), three concentrations, 24 h. In kind it is cell-based. The settings on record: with respect to DMSO control. Put shortly: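 Read-out is % MLLT1 degradation versus DMSO, from band peak areas on a JESS chemiluminescent system. Cells (MV4-11) were exposed for 24 h at 37° C to three compound levels, 10, 100 and 1000 nM, in 0.1% DMSO.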

On to `CN1CCC[C@@H]1c1cc2cnc(NC(=O)c3ccc(N4CCC(OCC5CCN(c6cccc7c6C(=O)N(C6CCC(=O)NC6=O)C7=O)CC5)CC4)nc3)cc2[nH]1` (stereo partly drawn) [Example 18, 6-(4-((1-(2-(2,6-dioxopiperidin-3-yl)-1,3-dioxoisoindolin-4-yl)piperidin-4-yl)methoxy)piperidin-1-yl)-N-(2-((R)-1-methylpyrrolidin-2-yl)-1H-pyrrolo[3,2-c]pyridin-6-yl)nicotinamide], for which the “MLLT1% Degradation @ 0.01 μM” value is reported as “B (Category B: 50% ≤ B < 75% degradation)”, the “MLLT1% Degradation @ 0.1 μM” value is given as “A (Category A: A ≥ 75% degradation)” and the “MLLT1% Degradation @ 1 μM” value is “A (Category A: A ≥ 75% degradation)”.

On to `Cc1cc(OC2CCN(c3ccc(C(=O)Nc4cc5[nH]c([C@H]6CCCN6C)cc5cn4)c(F)c3)CC2)ccc1-c1cccc2c1CN(C1CCC(=O)NC1=O)C2=O` (stereo partly drawn) [Example 203, 4-(4-(4-(2-(2,6-dioxopiperidin-3-yl)-1-oxoisoindolin-4-yl)-3-methylphenoxy)piperidin-1-yl)-2-fluoro-N-(2-((R)-1-methylpyrrolidin-2-yl)-1H-pyrrolo[3,2-c]pyridin-6-yl)benzamide], for which the “MLLT1% Degradation @ 0.01 μM” value was “C (Category C: 25% ≤ C < 50% degradation)”, the “MLLT1% Degradation @ 0.1 μM” value is recorded as “C (Category C: 25% ≤ C < 50% degradation)” and the “MLLT1% Degradation @ 1 μM” value is reported as “B (Category B: 50% ≤ B < 75% degradation)”.

For `CN1CCC[C@@H]1c1cc2cnc(NC(=O)c3ccc(N4CCC(CC#Cc5ccc6c(c5)CN(C5CCC(=O)NC5=O)C6=O)CC4)nc3)cc2[nH]1` (stereo partly drawn) [Example 224, 6-(4-(3-(2-(2,6-dioxopiperidin-3-yl)-1-oxoisoindolin-5-yl)prop-2-yn-1-yl)piperidin-1-yl)-N-(2-((R)-1-methylpyrrolidin-2-yl)-1H-pyrrolo[3,2-c]pyridin-6-yl)nicotinamide], the “MLLT1% Degradation @ 0.01 μM” value was “C (Category C: 25% ≤ C < 50% degradation)”, the “MLLT1% Degradation @ 0.1 μM” value is given as “C (Category C: 25% ≤ C < 50% degradation)” and the “MLLT1% Degradation @ 1 μM” value is “C (Category C: 25% ≤ C < 50% degradation)”.

For the compound `CN1CCC[C@@H]1c1cc2cnc(NC(=O)c3ccc(N4CCC(c5ccc(-c6cccc7c6CN(C6CCC(=O)NC6=O)C7=O)cc5)CC4)cc3F)cc2[nH]1` (stereo partly drawn) [Example 218, 4-(4-(4-(2-(2,6-dioxopiperidin-3-yl)-1-oxoisoindolin-4-yl)phenyl)piperidin-1-yl)-2-fluoro-N-(2-((R)-1-methylpyrrolidin-2-yl)-1H-pyrrolo[3,2-c]pyridin-6-yl)benzamide], the “MLLT1% Degradation @ 0.01 μM” value was “C (Category C: 25% ≤ C < 50% degradation)”, the “MLLT1% Degradation @ 0.1 μM” value is recorded as “A (Category A: A ≥ 75% degradation)” and the “MLLT1% Degradation @ 1 μM” value is “B (Category B: 50% ≤ B < 75% degradation)”.

On to `CN1CCCC1c1cc2cnc(NC(=O)c3ccc(OCC#Cc4cccc5c4CN(C4CCC(=O)NC4=O)C5=O)cn3)cc2[nH]1` (centres unmarked) [Example 50, 5-[3-[2-(2,6-dioxo-3-piperidyl)-1-oxo-isoindolin-4-yl]prop-2-ynoxy]-N-[2-(1-methylpyrrolidin-2-yl)-1H-pyrrolo[3,2-c]pyridin-6-yl]pyridine-2-carboxamide], for which the “MLLT1% Degradation @ 0.01 μM” value is “B (Category B: 50% ≤ B < 75% degradation)”, the “MLLT1% Degradation @ 0.1 μM” value is “B (Category B: 50% ≤ B < 75% degradation)” and the “MLLT1% Degradation @ 1 μM” value is “B (Category B: 50% ≤ B < 75% degradation)”.

For the compound `CN1CCC[C@@H]1c1cc2cnc(NC(=O)CCCC3CCCN(c4cccc5c4C(=O)N(C4CCC(=O)NC4=O)C5=O)C3)cc2[nH]1` (stereo partly drawn) [Example 44, 4-(1-(2-(2,6-dioxopiperidin-3-yl)-1,3-dioxoisoindolin-4-yl)piperidin-3-yl)-N-(2-((R)-1-methylpyrrolidin-2-yl)-1H-pyrrolo[3,2-c]pyridin-6-yl)butanamide], the “MLLT1% Degradation @ 0.1 μM” value was “C (Category C: 25% ≤ C < 50% degradation)” and the “MLLT1% Degradation @ 1 μM” value was “C (Category C: 25% ≤ C < 50% degradation)”.

With `CN1CCC[C@@H]1c1cc2cnc(NC(=O)c3ccc(CCCC4CCN(c5cccc6c5CN(C5CCC(=O)NC5=O)C6=O)CC4)cc3)cc2[nH]1` (stereo in doubt) [Example 78, 4-(3-(1-(2-((rel-R)-2,6-dioxopiperidin-3-yl)-1-oxoisoindolin-4-yl)piperidin-4-yl)propyl)-N-(2-((R)-1-methylpyrrolidin-2-yl)-1H-pyrrolo[3,2-c]pyridin-6-yl)benzamide], the “MLLT1% Degradation @ 0.01 μM” value is “B (Category B: 50% ≤ B < 75% degradation)”, the “MLLT1% Degradation @ 0.1 μM” value was “A (Category A: A ≥ 75% degradation)” and the “MLLT1% Degradation @ 1 μM” value is listed as “A (Category A: A ≥ 75% degradation)”.

As to `CN1CCC[C@@H]1c1cc2cnc(NC(=O)c3ccc(OCCC4CCN(c5cccc6c5CN(C5CCC(=O)NC5=O)C6=O)CC4)cc3Cl)cc2[nH]1` (stereo partly drawn) [Example 205, 2-chloro-4-(2-(1-(2-(2,6-dioxopiperidin-3-yl)-1-oxoisoindolin-4-yl)piperidin-4-yl)ethoxy)-N-(2-((R)-1-methylpyrrolidin-2-yl)-1H-pyrrolo[3,2-c]pyridin-6-yl)benzamide], the “MLLT1% Degradation @ 0.01 μM” value is recorded as “B (Category B: 50% ≤ B < 75% degradation)”, the “MLLT1% Degradation @ 0.1 μM” value is given as “A (Category A: A ≥ 75% degradation)” and the “MLLT1% Degradation @ 1 μM” value is given as “A (Category A: A ≥ 75% degradation)”.

On to `CN1CCC[C@@H]1c1cc2cnc(NC(=O)c3ccc(OC4CN(CCC5CCN(c6ccc7c(c6)C(=O)N(C6CCC(=O)NC6=O)C7=O)CC5)C4)cc3)cc2[nH]1` (stereo partly drawn) [Example 227, 4-((1-(2-(1-(2-(2,6-dioxopiperidin-3-yl)-1,3-dioxoisoindolin-5-yl)piperidin-4-yl)ethyl)azetidin-3-yl)oxy)-N-(2-((R)-1-methylpyrrolidin-2-yl)-1H-pyrrolo[3,2-c]pyridin-6-yl)benzamide], for which the “MLLT1% Degradation @ 0.01 μM” value is reported as “D (Category D: D < 25% degradation)”, the “MLLT1% Degradation @ 0.1 μM” value is on record as “C (Category C: 25% ≤ C < 50% degradation)” and the “MLLT1% Degradation @ 1 μM” value is “C (Category C: 25% ≤ C < 50% degradation)”.

Take `Cc1ncsc1-c1ccc(CNC(=O)[C@@H]2C[C@@H](O)CN2C(=O)[C@@H](NC(=O)CCCCCCCCCCNC(=O)c2ccc(C(=O)Nc3cc4[nH]c([C@H]5CCCN5C)cc4cn3)cc2)C(C)(C)C)cc1` [Example 69, (2S,4R)-1-[(2S)-3,3-dimethyl-2-(11-{[4-({2-[(2R)-1-methylpyrrolidin-2-yl]-1H-pyrrolo[3,2-c]pyridin-6-yl}carbamoyl)phenyl]formamido}undecanamido)butanoyl]-4-hydroxy-N-{[4-(4-methyl-1,3-thiazol-5-yl)phenyl]methyl}pyrrolidine-2-carboxamide]: the “MLLT1% Degradation @ 0.01 μM” value was “C (Category C: 25% ≤ C < 50% degradation)”, the “MLLT1% Degradation @ 0.1 μM” value was “C (Category C: 25% ≤ C < 50% degradation)” and the “MLLT1% Degradation @ 1 μM” value is listed as “C (Category C: 25% ≤ C < 50% degradation)”.

As to `CCN1CCC[C@@H]1c1cc2cnc(NC(=O)c3ccc(CCCCC#Cc4cccc5c4CN(C4CCC(=O)NC4=O)C5=O)nc3)cc2[nH]1` (stereo partly drawn) [Example 74, 6-(6-(2-(2,6-dioxopiperidin-3-yl)-1-oxoisoindolin-4-yl)hex-5-yn-1-yl)-N-(2-((R)-1-ethylpyrrolidin-2-yl)-1H-pyrrolo[3,2-c]pyridin-6-yl) nicotinamide], the “MLLT1% Degradation @ 0.01 μM” value is “B (Category B: 50% ≤ B < 75% degradation)”, the “MLLT1% Degradation @ 0.1 μM” value is reported as “B (Category B: 50% ≤ B < 75% degradation)” and the “MLLT1% Degradation @ 1 μM” value is reported as “B (Category B: 50% ≤ B < 75% degradation)”.

As to `CN1CCC[C@@H]1c1cc2cnc(NC(=O)c3ccc(N4CCN(CC5CCN(c6cccc(C(=O)N[C@H]7CCC(=O)NC7=O)n6)CC5)CC4)cc3)cc2[nH]1` [Example 182, N—((S)-2,6-dioxopiperidin-3-yl)-6-(4-((4-(4-((2-((R)-1-methylpyrrolidin-2-yl)-1H-pyrrolo[3,2-c]pyridin-6-yl)carbamoyl)phenyl)piperazin-1-yl)methyl)piperidin-1-yl)picolinamide], the “MLLT1% Degradation @ 0.01 μM” value is reported as “C (Category C: 25% ≤ C < 50% degradation)”, the “MLLT1% Degradation @ 0.1 μM” value is “B (Category B: 50% ≤ B < 75% degradation)” and the “MLLT1% Degradation @ 1 μM” value is “B (Category B: 50% ≤ B < 75% degradation)”.

Take `C[C@@H]1CN(CC2CCN(c3cccc4c3CN(C3CCC(=O)NC3=O)C4=O)CC2)CCN1c1ccc(C(=O)Nc2cc3[nH]c([C@H]4CCCN4C)cc3cn2)cc1` (relative stereo) [Example 134, 4-((R)-4-((1-(2-((rel-R)-2,6-dioxopiperidin-3-yl)-1-oxoisoindolin-4-yl)piperidin-4-yl)methyl)-2-methylpiperazin-1-yl)-N-(2-((R)-1-methylpyrrolidin-2-yl)-1H-pyrrolo[3,2-c]pyridin-6-yl)benzamide]: the “MLLT1% Degradation @ 0.01 μM” value is recorded as “B (Category B: 50% ≤ B < 75% degradation)”, the “MLLT1% Degradation @ 0.1 μM” value is on record as “A (Category A: A ≥ 75% degradation)” and the “MLLT1% Degradation @ 1 μM” value is listed as “A (Category A: A ≥ 75% degradation)”.
